Measured values reported in paper PMC11796224, “Merck Open Global Health Library in vitro screening against Schistosoma mansoni identified two new substances with antischistosomal activities for further development” (Parasites & Vectors, 2025).
Where two headings read alike, the source gives them in different places.

Columns and labels:
adult S. mansoni couples = test: In vitro screening of OGHL compounds and analogues against adult S. mansoni couples (Giessen); format: cell-based, Schistosoma mansoni; conditions: 10 µM; for Effect on egg production: after 24 h, compared to control
Protocol: For in vitro culture in Giessen, M199 medium (Gibco) containing 10% newborn calf serum, 1% HEPES (1 M) and 1% ABAM solution (10,000 units penicillin, 10 mg streptomycin and 25 µg amphotericin B per millilitre) were used. After perfusion, the worms were transferred to petri dishes with 5 mL medium using featherweight tweezers. The worms were cultured at 37 °C and 5% CO2. After 24 h, stably paired couples were selected for inhibitor assays.
The initial screening by the Giessen team covered the 250 compounds of the OGHL, and in a subsequent, second screening approach, an additional 58 analogues of the compounds OGHL22 and OGHL121, which were tested on S. mansoni couples in vitro. For each compound, three replicates of five couples randomised from different hamsters were used. The couples were transferred to 6-well plates (or 12-well plates) containing 2 mL pre-heated medium. For each compound, the stock solution was pre-diluted in pre-heated medium, and then added to each replicate, resulting in a final volume of 2.5 mL and a final concentration of 10 µM. A negative control was included for all assays. For this, three replicates were prepared with DMSO (0.1%) as volume substitution of the stock solution. The worms were cultured at 37 °C and 5% CO2. As physiological parameters, worm motility, pairing stability, and attachment were assessed after 4 h and 24 h. After 24 h, egg production was also estimated (see below).
For the first screening approach, the Giessen team evaluated pairing stability by counting couples at the time of scoring. Attachment was determined by counting the number of worms (couples or single worms) that were attached to any surface. Motility was scored on a scale of 0–4. The average activity of the worms in the negative control was used as a reference value for normal activity: 4 indicated increased activity, 3 normal activity, 2 reduced activity, 1 little activity with occasional head and tail movements and/or gut movement, 0 no activity for at least 20 s. The number of eggs was estimated after 24 h. Compared to the control, categories for egg production were defined as fewer eggs (score 0), similar numbers of egg (score 1) and more eggs (score 2). The corresponding percentages of the scores were determined based on three replicates. Score 0 corresponded to less than 50% eggs, score 1 to 50–200%, and score 2 to over 200% of the egg count compared to the negative control. The means of the scores were later normalized to the range 0–2 (0–200%).

Schistosoma mansoni = conditions: cited from earlier work
[1] = test system: newly transformed schistosomula (NTS); test: In vitro screening against newly transformed schistosomula (Basel); format: cell-based, Schistosoma mansoni; conditions: 10 µM, 72 h incubation, Basel team
Protocol: At the Basel lab, infected B. glabrata snails were placed for 4 h under a light source to initiate the shedding of cercariae, which were collected, mechanically transformed into NTS, and kept in M199 medium supplemented with 5% fetal calf serum (FCS), 1% Mäsermix, and 1% penicillin/streptomycin (pen./strep.) 10,000 U/ml, at 37 °C and 5% CO2 [27]. To collect adult S. mansoni, mesenteric veins of infected hamsters were dissected on day 49 post-infection. The worms were placed in supplemented RPMI 1640 medium (containing 5% FCS, 1% pen., and 100 μg/ml strep.) and incubated at 37 °C with 5% CO2 until further use.
The Basel team performed the screening as follows: the stock solutions of each compound from the library (10 mM) were diluted with M199 medium (supplemented with 1% pen./strep., 1% Mäsermix, 5% FCS) and NTS solution (0.7 NTS/µL) in a transparent flat-bottom 96-well plate (Sarstedt, Switzerland), resulting in a final volume of 250 µL, 30–40 NTS, and a drug concentration of 10 µM. For adults, the drugs were diluted to 10 µM in 2 mL with RPMI 1640 medium (supplemented with 1% pen./strep. and 5% FCS) in a 24-well plate (Sarstedt, Switzerland), and three schistosome couples were added. […] For both life stages, DMSO served as a negative control (< 1% of the final volume). The plates were incubated at 37 °C and 5% CO2. […]

SMILES | Effect on egg production (adult S. mansoni couples) | other results
CCCCCCN(Cc1ccc(C#Cc2ccc(CCCC)cc2)cc1)c1ccc(O)c(C(=O)O)c1 [OGHL00126] | affected | –
CCCCc1nc2ccn(Cc3ccccc3C(=O)O)c(=O)c2n1Cc1ccc(-c2ccccc2-c2nn[nH]n2)cc1 [OGHL00034] | affected | –
CCc1cc(C)c(C(=O)N=C(N)N)cc1S(C)(=O)=O [OGHL00053] | affected | –
COc1ccc(OCC(=O)O)cc1-c1cn2cc(C(=O)NCCc3c(OC)cc(Cl)cc3OC)sc2n1 [OGHL00248] | affected | –
COc1ccc(OCC(N)=O)cc1-c1cn2cc(C(=O)NCCc3c(OC)cccc3OC)sc2n1 [OGHL00241] | affected | –
O=C(C1CCCCC1)N1CC(=O)N2CCc3ccccc3C2C1 (centres unmarked) [PZQ, praziquantel] | – | Motility score in the initial approach (adult S. mansoni couples; within 24 h): about 0; EC50 (Schistosoma mansoni; at 4 h): 0.1 µg/mL; EC50 (Schistosoma mansoni; at 72 h, ref 32, read-out: EC50): 100 nM; EC50 (Schistosoma mansoni; at 72 h, ref 33): 0.05 µg/mL
COC(=O)c1cc(C(=O)N=C(N)N)c(C)cc1C [OGHL00094] | affected | –
COc1ccc(CNc2nc(CCCCC(=O)O)nc3sc4ccccc4c23)cc1Cl [OGHL00101] | affected | –
O=C(O)c1ccc(-c2nc(NCc3ccccc3)c3c4c(sc3n2)CCCC4)cc1 [OGHL00079] | affected | –
Cc1cc(C2CCC2)c(S(C)(=O)=O)cc1C(=O)N=C(N)N [OGHL00061] | affected | –
O=C(C1CCCCC1)N1CC(=O)N2CCc3ccccc3[C@@H]2C1 [OGHL00244, (R)-PZQ, reference compound] | drastically reduced | Attachment after 4 h (adult S. mansoni couples; adult couples, Giessen team): strong effects on attachment capacity; Pairing stability after 4 h (adult S. mansoni couples; adult couples, Giessen team): no effect on pairing stability; Pairing stability after 24 h (adult S. mansoni couples; adult couples, Giessen team): no effect on pairing stability; Activity against NTS [1]: greater than 65%
CC1(C)Oc2ccc(C#N)cc2[C@H](n2ccccc2=O)[C@H]1O [OGHL00027] | affected | –
COc1cc(C(=O)Nc2cn(Cc3ccc(Cl)c(Cl)c3)nn2)ccc1-n1cnc(C)c1 [OGHL00219] | affected | –
COc1nc(/C=C/c2nc3n(n2)CCCC3c2ccccc2C(F)(F)F)ccc1-n1cnc(C)c1 (centres unmarked) [OGHL00208] | affected | –
COc1ccc(CNc2nc(CCCCC(=O)O)nc3sc4c(c23)CCCC4)cc1Cl [OGHL00092] | affected | –
CCCSc1cc(C)c(C(=O)N=C(N)N)cc1S(C)(=O)=O [OGHL00050] | affected | –
O=C(C1CCCCC1)N1CC(=O)N2CCc3ccccc3[C@H]2C1 [OGHL00245] | – | Couples separated after 4 h (adult S. mansoni couples): > 50%; Couples separated after 24 h (adult S. mansoni couples): separation of all couples
O=C(O)c1ccc(-c2nc(NCc3ccc4c(c3)OCO4)c3cc(Cl)sc3n2)cc1 [OGHL00093] | affected | –
